Data reported in patent EP4241766A1, “USE OF OLFACTORY RECEPTOR OR13A1 LIGANDS IN THE TREATMENT OF LYMPHOMAS” (Fondazione Per L'Istituto Oncologico Di Ricerca (IOR), priority 2022, dated 2023).

How the values were obtained:
U2932 DLBCL cell line = experiment: Growth/viability of U2932 cells with doxycycline-inducible shRNA system targeting OR13A1; assay type: cell-based
Excerpt: • Figure 1. Expression of OR13A1 across lymphoma cell lines as measured by RNA-Seq. A) Heatmap is based on log2 CPM (counts per million). Scale ranges from low (white) to high expression (black). Each horizontal represents the value for one cell line. GCB DLBCL, diffuse large B-cell lymphoma of the germinal center B-cell-type; ABC DLBCL, diffuse large B-cell lymphoma of the activated B-cell-like; MCL, mantle cell lymphoma; MZL, marginal zone lymphoma; CLL, chronic lymphocytic leukemia; PMBCL, primary mediastinal large B-cell lymphoma; BL, Burkitt lymphoma. B) OR13A1 expression level by cell of origin in DLBCL cell lines, the expression was higher in cells derived from germinal center (GC) B-cell type (GCB) than activated B cell like (ABC) DLBCL (P value = 0.03). • Figure 2. OR13A1 silencing is associated with reduction in cell viability of DLBCL cells. Left panel, real-time PCR showing reduction of OR13A1 72h after siRNA treatment. Right panel, Reduction of cell viability, measured with MTT, in DLBCL cells after gene silencing. • Figure 3. Homology model of OR13A1 with two ligands. A) cyclohexanone docked onto the orthosteric binding site. B) tyramine docked onto the orthosteric binding site. Residues identified in the model to interact with the tyramine, potentially relevant for the receptor activation, are shown in sticks, D221 and T297. • Figure 4. […] Experiments were done using U2932 cells with the doxycycline-inducible shRNA system, exposed or not to cyclohexanone (25µM). The red arrow indicates the addition of cyclohexanone. CH, cyclohexanone; sh1, doxycycline-inducible shRNA targeting OR13A1; shCNT, scramble doxycycline-inducible shRNA.
Cellular experiments followed with cyclohexanone and, among the predicted ligands, tyramine using the U2932 DLBCL cell line with the doxycycline-inducible shRNA system.

Olfr211 = target: T1, Olfr211 (Mus musculus, UniProt Q8VGH2); conditions: experimentally demonstrated, reference [52]; cited from earlier work
T1 sequence (Q8VGH2 1-309): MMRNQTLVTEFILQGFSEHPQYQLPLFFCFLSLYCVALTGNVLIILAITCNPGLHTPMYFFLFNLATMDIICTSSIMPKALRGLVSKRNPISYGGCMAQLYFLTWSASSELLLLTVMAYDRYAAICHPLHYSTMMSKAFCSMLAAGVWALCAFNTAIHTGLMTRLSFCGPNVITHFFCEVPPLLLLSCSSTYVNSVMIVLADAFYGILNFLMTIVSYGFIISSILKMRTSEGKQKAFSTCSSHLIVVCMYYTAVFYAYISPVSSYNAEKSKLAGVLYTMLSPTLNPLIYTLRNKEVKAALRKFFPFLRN

Olfr1484 = conditions: experimentally demonstrated, reference [52]; cited from earlier work

With `NCCc1ccc(O)cc1` [tyramine] the “lymphoma cell line growth” value (U2932 DLBCL cell line; U2932 DLBCL cell line, doxycycline-inducible shRNA system) was “increased lymphoma cell line growth”.

In the case of `O=C1CCCCC1` [cyclohexanone], the lymphoma cell viability (U2932 DLBCL cell line; U2932, in the presence of the GPCR (OR13A1), Figure 4) is reported as “decreased the lymphoma cell viability in the presence”, the “effect on growth of DLBCL cells” value (U2932 DLBCL cell line; U2932 cells, cyclohexanone 25µM, absence of OR13A1 (sh1), Figure 4) is reported as “The absence of OR13A1 abrogates the effect” and the “growth of DLBCL cells” value (U2932 DLBCL cell line; U2932 cells, cyclohexanone 25µM, Figure 4) is reported as “reduces the growth of DLBCL cells”. The “ligand of Olfr211” value (Olfr211) was “ligand” and the “ligand of Olfr1484” value (Olfr1484) was “ligand”.
